Experiment [1] deals with T1, SIRT5 (Homo sapiens, UniProt Q9NXA8).
T1 construct: SIRT5 (34-302); made in house
T1 sequence (Q9NXA8 34-302): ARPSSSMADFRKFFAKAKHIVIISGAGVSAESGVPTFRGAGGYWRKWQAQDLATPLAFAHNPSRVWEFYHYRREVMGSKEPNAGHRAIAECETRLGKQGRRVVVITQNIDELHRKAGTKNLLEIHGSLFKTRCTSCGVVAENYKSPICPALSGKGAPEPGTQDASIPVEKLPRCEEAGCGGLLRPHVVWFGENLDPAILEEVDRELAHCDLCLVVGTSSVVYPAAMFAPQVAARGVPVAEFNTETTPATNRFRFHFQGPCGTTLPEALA
The experiment is described as follows: Labeling of SIRT5 in partially purified recombinant sirtuin mixture and peptide competition. The class given is biochemical. To be noted: 500 μM NAD+, increasing concentrations of probe, 20 min irradiation. From the text: Probe 2B, being a selective SIRT5 inhibitor, was also selective for SIRT5 in the labeling experiments. […] The on-target effect of probe 2B was further confirmed by the peptide competition analysis. H3K9Suc (Figure 4B), a synthetic peptide that is identical to the N-terminus of histone H3 bearing a succinylated lysine 9 mark, is a known SIRT5 substrate. H3K9Suc was titrated into SIRT5 in the presence of probe 2B.
Figure 4 Labeling of SIRT5 by probe 2B. (A) Dose-dependent labeling of SIRT5 by probe 2B in recombinantly expressed, partially purified sirtuin mixture. SIRT1, SIRT2, SIRT3, SIRT5, and SIRT6 were mixed and incubated with 500 μM NAD^+ and increasing concentrations of 2B. The samples were incubated at 37 °C for 10 min and subjected to UV irradiation for 20 min, and then “click” conjugated to TAMRA-azide; (B) Chemical structure of H3K9Suc; (C) Peptide competition. The labeling of SIRT5 by probe 2B decreased with increasing concentrations of the competitor peptide, H3K9Suc.
A typical labeling experiment was performed as follows: in a 0.7 mL Eppendorf tube, purified recombinant human sirtuin (10 μM) was incubated with NAD^+ (500 μM) and activity-based probe at 37 °C for 10 min. […] Then, destained gel was analyzed with in-gel fluorescence scanning using a Biorad ChemiDoc MP imager (excitation 532 nm, 580 nm cut-off filter and 30 nm band-pass). […]

For another experiment, the target named is SIRT6 (Homo sapiens, UniProt Q8N6T7). Put plainly: Sirtuin inhibition assay (HPLC), SIRT6. The class given is biochemical. Further details: host or cells: E. coli (inferred from b12). The conditions noted are these: substrate H3K9Ac; 500 μM NAD+, 500 μM peptide, 10 μM sirtuin, pH 7.5, 37 °C; NI = Not inhibited. The protocol: Plasmids of SIRT1 (full length), SIRT2 (38-356), SIRT3 (102-399), and SIRT5 (34-302) were generous gifts from Dr. Hening Lin (Cornell University, Ithaca, NY, USA). SIRT6 was a gift from Cheryl Arrowsmith (Addgene plasmid #28271). The proteins were expressed and purified according to previously published protocols. The identity of the protein was confirmed by tryptic digestion followed by LC-MS/MS analysis performed at the Vermont Genetic Network (VGN) Proteomics Facility. Protein concentrations were determined by Bradford assay (Thermo Fisher Scientific, Rockford, IL, USA).
A typical reaction contained 500 μM NAD^+ and 500 μM peptide substrate (H3K9Ac for SIRT2, SIRT3 and SIRT6, p53K382Ac for SIRT1 and SIRT5) of varying concentrations of a small molecule probe in 100 mM phosphate buffer pH 7.5. The reactions were initiated by the addition of 10 μM of sirtuin and were incubated at 37 °C before being quenched by 8 μL of 10% TFA. The incubation time was controlled so that the conversion of substrate was less than 15%. The samples were then injected on an HPLC fitted to a Macherey-Nagel Nucleosil C18 column. NAD^+, NAM and AADPR (acetyl-ADP-ribose) peaks were resolved using a gradient of 0 to 20% methanol in 20 mM ammonium acetate. Chromatograms were analyzed at 260 nm. Reactions were quantified by integrating areas of peaks corresponding to NAD^+ and AADPR. […]

For experiment [2], the target named is T2, SIRT5 (Homo sapiens, UniProt Q9NXA8).
T2 construct: endogenous in cells; host or cells: HEK293
T2 sequence (Q9NXA8 37-310): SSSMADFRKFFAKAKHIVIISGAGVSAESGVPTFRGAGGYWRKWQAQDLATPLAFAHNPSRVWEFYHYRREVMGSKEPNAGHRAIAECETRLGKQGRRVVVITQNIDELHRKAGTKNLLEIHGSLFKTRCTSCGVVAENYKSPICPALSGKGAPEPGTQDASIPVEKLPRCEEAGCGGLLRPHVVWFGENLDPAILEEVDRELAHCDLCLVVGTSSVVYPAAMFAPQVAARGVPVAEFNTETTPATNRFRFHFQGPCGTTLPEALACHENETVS
The experiment is described as follows: Western blot of CPS1Ac in HEK293 cells. The class given is cell-based. The protocol:
The cellular activity of probes 2A and 2B was also investigated. […] SIRT5 is known to deacetylate and activate carbamoyl phosphate synthetase I (CPS1), which is the enzyme catalyzing the first step of the urea cycle. Cells were treated with either probe 2B or a known SIRT5 inhibitor, suramin, before the acetylation level of CPS1 (CPS1Ac) was examined.
The cell lysate was resolved on a 10% SDS-PAGE gel and transferred to Immobilon PVDF transfer membrane (Millipore, Burlington, MA, USA). The blot was blocked with 5% nonfat milk, probed with primary antibody targeting H3K9Ac (Sigma-Aldrich, St. Louis, MO, USA), H3 (Abcam, Cambridge, MA, USA), acetyllysine or CPS1 (Cell Signaling Technology, Beverly, MA, USA), washed with PBST, followed by incubation with anti-rabbit or anti-mouse HRP conjugated secondary antibody. Then, the signal was detected by SuperSignal West Pico Chemiluminescent substrate (Thermo Fisher Scientific, Rockford, IL, USA).
(In general: A western blot detects proteins with antibodies after separation by electrophoresis.)

pIC50: −log10 of the molar value.

Sequence of SIRT6 (Q8N6T7 whole entry): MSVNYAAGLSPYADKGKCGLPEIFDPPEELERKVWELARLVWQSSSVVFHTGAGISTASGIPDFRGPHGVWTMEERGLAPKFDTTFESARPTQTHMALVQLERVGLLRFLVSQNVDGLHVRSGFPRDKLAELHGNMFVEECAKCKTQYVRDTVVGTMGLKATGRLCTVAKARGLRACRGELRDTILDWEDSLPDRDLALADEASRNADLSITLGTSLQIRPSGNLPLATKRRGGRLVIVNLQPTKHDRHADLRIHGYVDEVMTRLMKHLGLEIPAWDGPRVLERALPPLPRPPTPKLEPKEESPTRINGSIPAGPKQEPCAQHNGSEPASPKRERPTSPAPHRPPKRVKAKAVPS

For orientation: pIC50 means −log10 of the IC50, conventionally taken in molar units. Low readings indicate a large IC50, high ones a small IC50. Consider `C#CCCCC1(CCC(=O)N[C@@H](CCCCNC(=S)CCC(=O)O)C(=O)N[C@@H](C)C(=O)N[C@@H](C)C(=O)OC)N=N1` [Probe 2B], for which, at SIRT5 [1], the “labeling of SIRT5 in sirtuin mixture” value is listed as “robust labeling of SIRT5 in a concentration-dependent fashion”. Moreover, the negative logarithm of the IC50 (pIC50) against SIRT6 is less than 2.30. In addition, the “CPS1Ac level compared to control” value on SIRT5 [2] was “increased CPS1Ac level”.

Source of the values: PMC7792806, “Development of Second Generation Activity-Based Chemical Probes for Sirtuins” (Molecules, 2020).
